# Test system: M. tuberculosis H37Rv growth inhibition
# Assay: Mycobacterium tuberculosis H37Rv growth inhibition, putative kinase inhibitor library, confirmatory dose response (AID 2842);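 further: bacteria incubated one week before Alamar blue readout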
row,Structure (SMILES),IC90
1,Cc1ccc(C)c(-c2nnc(NC(=O)c3ccc4ccccc4c3)o2)c1,18.8 µg/mL
2,CC(C)C(=O)Nc1nnc(-c2ccccc2)o1,3.31 µg/mL
3,Cc1ccc(C(=O)Nc2nnc(-c3cc(C)ccc3C)o2)cc1,41.5 µg/mL
4,O=C(NCCSc1c(-c2ccccc2)[nH]c2ccccc12)c1cc2ccccc2oc1=O,2.71 µg/mL
5,c1ccc(CN2CCN(c3nc(Nc4ccccc4)c4nccnc4n3)CC2)cc1,5.37 µg/mL
6,CCOC(=O)c1ccc2nc(NC(=O)C(C)C)sc2c1,19.5 µg/mL
7,Cc1c(CCC#N)c(=O)n2c([nH]c3ccccc32)c1C#N,2.29 µg/mL
8,O=C(CCSc1ccccc1)Nc1nnc(-c2ccccc2)o1,12.9 µg/mL
9,CCOc1ccc2c(c1)c1nnc(-c3ccc(OC)cc3)c-1cn2Cc1ccccc1F,4.73 µg/mL
10,Cc1[nH]c2ccccc2c1/C=N/NC(=O)c1cc(-c2ccc(Br)s2)[nH]n1,12.2 µg/mL
11,Fc1ccc(Nc2nc(Nc3cccc(F)c3)nc3nccnc23)cc1,60.6 µg/mL
12,COc1ccccc1-c1cnn2c(NC3CCCCC3)cc(C)nc12,13.5 µg/mL
13,CCCCc1ccc(NCCn2c(C)c(C)n3c4c(=O)[nH]c(=O)n(C)c4nc23)cc1,12.6 µg/mL
14,Cc1nnsc1C(=O)Nc1ccc([N+](=O)[O-])cc1C(F)(F)F,28.1 µg/mL
15,CC(=O)c1cccc(Nc2nc(Nc3ccc(F)c(Cl)c3)nc(N3CCOCC3)n2)c1,8.38 µg/mL
16,Cc1ccc(C)c(-c2nnc(NC(=O)c3cc(Cl)ccc3[N+](=O)[O-])o2)c1,0.68 µg/mL
17,O=C(O)c1ccccc1NC1=C(Cl)C(=O)N(c2cccc(Cl)c2)C1=O,21.3 µg/mL
18,COC(=O)c1cc(C(=O)OC)cc(-n2c(C)cc(C(=O)CCl)c2C)c1,6.39 µg/mL
19,Cc1cc(C)cc(Nc2nc(Nc3ccc(F)cc3)nc(N3CCOCC3)n2)c1,11.1 µg/mL
20,O=c1[nH]c(CSc2ccccc2)nc2ccccc12,7.54 µg/mL
21,O=C(Nc1nnc(-c2ccc(F)cc2)o1)c1ccco1,2.84 µg/mL
22,Cc1ccc(C)c(-c2nnc(NC(=O)c3ccc(Br)s3)o2)c1,6.75 µg/mL
23,Cc1cc(Cl)cc2sc(N(CCCn3ccnc3)C(=O)c3cccs3)nc12,1.05 µg/mL

row,Structure (SMILES),IC90
1,Cc1ccc2sc(NNC(=O)C3COc4ccccc4O3)nc2c1C (stereo not given),0.88 µg/mL
2,CCN(c1ccccc1)S(=O)(=O)c1ccc(C(=O)Nc2ccc3ncsc3c2)cc1,14.7 µg/mL
3,Cc1ccc(C(=O)Nc2nnc(-c3ccncc3)o2)cc1,13.4 µg/mL
4,O=C(CSCc1ccc(Cl)c(Cl)c1)Nc1ccc(F)cc1,12.9 µg/mL
5,COC(=O)c1ccc(C(=O)NNc2nc3ccc(Cl)cc3s2)cc1,28.9 µg/mL
6,N=c1nnc2c3ccccc3ccc2n1O,41.3 µg/mL
7,O=C(Nc1nnc(-c2ccco2)o1)c1ccc([N+](=O)[O-])cc1,35.8 µg/mL
8,COc1ccccc1-c1nnc(NC(=O)c2sc3ccccc3c2Cl)o1,5.3 µg/mL
9,Cc1ccc(-n2nnc3c(SCC(=O)N4CCOCC4)ncnc32)cc1,12.3 µg/mL
10,COc1cccc2sc(N(CCCn3ccnc3)C(=O)c3ccc4c(c3)OCCO4)nc12,6.56 µg/mL
11,COC(=O)C(C)Oc1ccc2cc(-c3ccc(OC)c(OC)c3)c(=O)oc2c1 (stereo not given),6.7 µg/mL
12,CC(C)(C)C1CCc2c(sc3nnn(CC(=O)NCc4ccco4)c(=O)c23)C1 (stereo not given),22.3 µg/mL
13,O=C(CCCN1C(=O)/C(=C\c2ccco2)SC1=S)Nc1ccccn1,4.87 µg/mL
14,COc1cccc(C(=O)NNc2nc3c(C)cccc3s2)c1,11.6 µg/mL
15,CC(C)(C)C(=O)Nc1nnc(C2=COCCO2)o1,48.6 µg/mL
16,COc1ccccc1-c1nnc(NC(=O)CCc2ccccc2)o1,6.99 µg/mL
17,COc1ccc2nc(Nc3nc4c(OC)cccc4s3)sc2c1,3.38 µg/mL
18,COc1cc(OC)cc(-c2nnc(NC(=O)c3ccc([N+](=O)[O-])o3)o2)c1,9.08 µg/mL
19,O=C(Nc1nnc(C2=COCCO2)o1)c1ccc(Cc2ccccc2)cc1,28.1 µg/mL
20,CCOC(=O)N1CCc2c(sc(NC(=O)C3COc4ccccc4O3)c2C(N)=O)C1 (stereo not given),8.19 µg/mL
21,COc1cc(C2C3=C(CC(C)(C)CC3=O)Nc3ncnn32)ccc1OCc1ccc(Cl)c(Cl)c1 (stereo not given),6.77 µg/mL
22,O=C(Nc1cccc(Cl)c1)c1cccc2nc3ccccc3nc12,4.6 µg/mL
23,CCCCOc1ccc(C(=O)Nc2nnc(-c3ccco3)o2)cc1,0.8 µg/mL

row,Structure (SMILES),IC90
1,CC(C)N1CCc2c(sc(NC(=O)c3ccc([N+](=O)[O-])s3)c2C(N)=O)C1,6.33 µg/mL
2,Cc1c(C)n2c3c(=O)[nH]c(=O)n(C)c3nc2n1CCCNc1ccccc1Cl,25.4 µg/mL
3,COc1cc(Br)cc(/C=N/Nc2nc(=O)[nH]nc2C)c1O,< 0.2 µg/mL
4,COc1ccc2nc(N(CCCn3ccnc3)C(=O)c3cccc(OC)c3OC)sc2c1,11.3 µg/mL
5,CC(O)CNc1ncnc2c1cnn2-c1ccc(Cl)c(Cl)c1 (stereo not given),12.5 µg/mL
6,O=C1N/C(=N\N=C\c2ccccc2O)SC1Cc1cc(Cl)ccc1Cl (stereo not given),4.52 µg/mL
7,O=C(Nc1nnc(-c2ccncc2)o1)c1cccc(C(F)(F)F)c1,28.1 µg/mL
8,COC(=O)c1ccc(C(=O)NNc2nc3c(C)cc(C)cc3s2)cc1,6.49 µg/mL
9,CC1CCc2nc(Nc3nc4cc5c(cc4s3)OCO5)sc2C1 (stereo not given),14.4 µg/mL
10,O=C(CCOc1ccccc1)Nc1nnc(-c2cc(Cl)ccc2Cl)o1,1.79 µg/mL
11,N#C/C(=C(\O)c1ccc2c(c1)OCCO2)c1nc2ccccc2s1,37.7 µg/mL
12,COc1cccc(Nc2cc(C)nc3c(-c4ccccc4)cnn23)c1,1.83 µg/mL
13,O=C(Nc1nnc(-c2ccc3c(c2)CCCC3)o1)c1ccc(Cl)s1,3.63 µg/mL
14,O=C(NCC(c1cccs1)N1CCc2ccccc2C1)c1ccc2c(c1)OCO2 (stereo not given),23.9 µg/mL
15,COc1ccc(-c2nnc(NC(=O)C3CC3)o2)cc1,1.06 µg/mL
16,Cc1ccc(C)c(-c2nnc(NC(=O)c3ccc(S(=O)(=O)N(C)c4ccccc4)cc3)o2)c1,13.3 µg/mL
17,O=C(Cc1ccccc1)Nc1nnc(-c2ccc(Cl)cc2)o1,14.1 µg/mL
18,CCOC(=O)N1CCc2c(sc(NC(=O)c3ccc(Oc4ccccc4)cc3)c2C(N)=O)C1,0.98 µg/mL
19,O=C(Nc1nnc(-c2ccc(Br)cc2)o1)c1ccccc1F,4.4 µg/mL
20,O=C1N/C(=N\N=C\c2ccccc2O)SC1Cc1ccc(F)cc1 (stereo not given),< 0.2 µg/mL
21,O=C(CS(=O)(=O)c1ccccc1)Nc1nc(-c2ccc3c(c2)CCCC3)cs1,1.02 µg/mL
22,Cc1ccc(C)c(-c2nnc(NC(=O)c3cccc4ccccc34)o2)c1,0.41 µg/mL
23,Cc1ccc(C)c(-c2nnc(NC(=O)c3ccc([N+](=O)[O-])o3)o2)c1,1.29 µg/mL

row,Structure (SMILES),IC90
1,COc1ccc2nc(NNC(=O)c3cc4ccccc4oc3=O)sc2c1,30.8 µg/mL
2,COc1ccc(-c2nc(N3CCCCC3)nc3n[nH]c(N)c23)cc1,12.9 µg/mL
3,O=C(Nc1nnc(-c2cc(Cl)ccc2Cl)o1)c1cc(Cl)ccc1Cl,0.49 µg/mL
4,COc1cc(OC)cc(C(=O)N(CCCn2ccnc2)c2nc3c(F)cccc3s2)c1,20.6 µg/mL
5,Cc1ccc(C2=NC(C)(C)N=C2SCC(=O)Nc2ccc(C)c(C)c2)cc1,23.5 µg/mL
6,COc1ccc(-c2nc(C(N)=O)c3[nH]c(=O)n(-c4ccc(C(C)(C)C)cc4)c3n2)c(OC)c1,17.3 µg/mL
7,C=CCOC(=O)COc1ccc2cc(-c3ccccc3)c(=O)oc2c1,1.22 µg/mL
8,O=C(Nc1nnc(-c2ccc(F)cc2)o1)c1cccc(Br)c1,93.6 µg/mL
9,CN1CCc2c(sc(NC(=O)c3ccc(C(C)(C)C)cc3)c2C(N)=O)C1,12.7 µg/mL
10,O=C(NC1NC(c2ccccc2)=CS1)c1ccc([N+](=O)[O-])s1 (stereo not given),3.42 µg/mL
11,Cc1ccc(-c2nnc(NC(=O)c3ccc(Cl)s3)o2)c(C)c1,2.01 µg/mL
12,Cc1ccc(-c2nnc(NC(=O)c3ccc4c(c3)CCCC4)o2)c(C)c1,36.9 µg/mL
13,Cc1ccc(C)c(-c2nnc(NC(=O)c3cccc(Cl)c3)o2)c1,16.3 µg/mL
14,Fc1cccc2sc(Nc3nc4cc5c(cc4s3)OCO5)nc12,11.1 µg/mL
15,COc1cccc(C(=O)Nc2nc3c(s2)CCc2ccccc2-3)c1,11.3 µg/mL
16,COc1ccc(-c2nnc(NC(=O)c3ccc4c(c3)OCCO4)o2)c(OC)c1,24.7 µg/mL
17,COc1ccc(-c2nnc(Nc3nc4c(OC)cccc4s3)o2)cc1,23.6 µg/mL
18,COc1cccc(NCCCn2c(C)cn3c4c(=O)[nH]c(=O)n(C)c4nc23)c1,46.2 µg/mL
19,CC(C)(C)c1csc(Nc2nc3c(F)cccc3s2)n1,6.52 µg/mL
20,CC1CCCN(c2nc3c(c(=O)[nH]c(=O)n3C)n2CCCSc2nc3ccccc3s2)C1 (stereo not given),16.6 µg/mL
21,Cc1ccc(-c2nnc(NC(=O)c3ccccc3C)o2)c(C)c1,2.52 µg/mL
22,Cc1ccc(-n2ncc3c(NC(C)C)ncnc32)cc1Cl,64 µg/mL
23,O=C(Nc1nnc(-c2ccc(Br)cc2)o1)c1ccc(Cl)s1,1.87 µg/mL

row,Structure (SMILES),IC90
1,CC(=O)OCn1nnc2ccccc2c1=O,3.33 µg/mL
2,CC1CCN(S(=O)(=O)c2ccc(C(=O)NNc3nc4c(Cl)cccc4s3)cc2)CC1,24.7 µg/mL
3,COc1cc2c3nnc(-c4ccc(C)c(C)c4)c-3cn(Cc3ccc(C)cc3)c2cc1OC,1.55 µg/mL
4,O=C(OCc1nc2ccccc2s1)c1ccc(F)cc1,15.4 µg/mL
5,COc1ccc2sc(Nc3nnc(-c4ccco4)o3)nc2c1,80 µg/mL
6,COC(=O)c1c(NC(=O)c2ccc3c(c2)CCCC3)sc2c1CCN(C(C)=O)C2,6.21 µg/mL
7,N#C/C(=C\Nc1ccccc1)c1nc2ccccc2[nH]1,3.25 µg/mL
8,CC(C)N1CCc2c(sc(NC(=O)c3ccc(S(=O)(=O)N(C)c4ccccc4)cc3)c2C(N)=O)C1,12.8 µg/mL
9,O=C(/C=C/c1ccccc1Cl)Nc1nnc(C2=COCCO2)o1,26.7 µg/mL
10,Cc1ccc(-c2nnc(NC(=O)CCSc3ccccc3)o2)c(C)c1,15.1 µg/mL
11,CCOc1cc(-c2nnc(NC(=O)c3ccccc3Cl)o2)cc(OCC)c1OCC,1.61 µg/mL
12,COC(=O)c1c(NC(=O)c2ccc(C)c(C)c2)sc2c1CCN(C(C)=O)C2,48 µg/mL
13,Cc1ccc(Nc2nc(N3CCCC3)nc3nccnc23)cc1C,3.21 µg/mL
14,COc1ccc(C)c2sc(N(CCCn3ccnc3)C(=O)Cc3ccccc3)nc12,21.1 µg/mL
15,O=C(Nc1nnc(-c2ccc3c(c2)CCCC3)o1)c1ccc([N+](=O)[O-])o1,10.6 µg/mL
16,O=C(Nc1ccc(Cl)c(Cl)c1)NC1CC(=O)N(c2cccc(F)c2)C1 (stereo not given),6.41 µg/mL
17,COc1cccc(NC(=O)C2C(=O)CN(c3ccccc3)C2=O)c1 (stereo not given),4.41 µg/mL
18,COc1cccc(-c2nnc(NC(=O)/C=C/c3cccs3)o2)c1,3.55 µg/mL
19,Fc1cc(F)c2nc(N3CCCC3)sc2c1,18.2 µg/mL
20,O=C(Nc1nnc(-c2ccco2)o1)c1cccs1,3.12 µg/mL
21,Cc1cccc(N2CCN(C(=O)CCCCCn3c(=O)[nH]c4ccsc4c3=O)CC2C)c1 (stereo not given),19.5 µg/mL
22,COc1ccc(OCC(=O)Nc2ccc(I)cc2C)cc1,3.2 µg/mL
23,O=C(Nc1nnc(-c2ccccc2)o1)c1nc2ccccc2s1,5.84 µg/mL

# — PubChem BioAssay AID2842 (Southern Research Institute, 2010)
